Calls of active or inactive are those of the source. The rule behind the calls is not given here.
How the values were obtained:
Format in all cases: functional, cell-based
[1] = biological target: T1, Muscarinic acetylcholine receptor M1 (Homo sapiens) (UniProt P11229); assay: Potentiation of muscarinic M1 receptor expressed in CHO cells assessed as effect on acetylcholine-induced intracellular calcium mobilization at 100 uM after 1 hr by FLIPR assay
T1 sequence (whole entry): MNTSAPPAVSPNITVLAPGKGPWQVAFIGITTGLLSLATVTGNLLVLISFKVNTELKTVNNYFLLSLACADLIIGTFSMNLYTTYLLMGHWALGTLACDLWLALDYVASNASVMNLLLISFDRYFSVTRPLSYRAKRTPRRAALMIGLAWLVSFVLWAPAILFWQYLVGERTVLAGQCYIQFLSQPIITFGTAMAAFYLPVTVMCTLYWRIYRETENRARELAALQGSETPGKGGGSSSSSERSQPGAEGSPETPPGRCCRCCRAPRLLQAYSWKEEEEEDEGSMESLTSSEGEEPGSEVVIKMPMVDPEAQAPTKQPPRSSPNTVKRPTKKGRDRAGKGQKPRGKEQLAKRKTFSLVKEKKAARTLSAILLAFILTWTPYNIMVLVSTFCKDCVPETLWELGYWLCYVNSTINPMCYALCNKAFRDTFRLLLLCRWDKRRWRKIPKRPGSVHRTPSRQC

[2] = biological target: T1, Muscarinic acetylcholine receptor M1 (Homo sapiens); assay: Potentiation of muscarinic M1 receptor expressed in CHO cells assessed as effect on acetylcholine-induced intracellular calcium mobilization after 1 hr by FLIPR assay relative to acetylcholine; parameters: concentration or dose not given beside the values
[3] = biological target: T1, Muscarinic acetylcholine receptor M1 (Homo sapiens); assay: Potentiation of muscarinic M1 receptor expressed in CHO cells assessed as effect on acetylcholine-induced intracellular calcium mobilization at 10 uM after 1 hr by FLIPR assay
[4] = biological target: T2, Muscarinic acetylcholine receptor M5 (Homo sapiens) (UniProt P08912); assay: Potentiation of muscarinic M5 receptor expressed in CHO cells assessed as effect on acetylcholine-induced intracellular calcium mobilization at 30 uM after 1 hr by FLIPR assay relative to acetylcholine
T2 sequence (whole entry): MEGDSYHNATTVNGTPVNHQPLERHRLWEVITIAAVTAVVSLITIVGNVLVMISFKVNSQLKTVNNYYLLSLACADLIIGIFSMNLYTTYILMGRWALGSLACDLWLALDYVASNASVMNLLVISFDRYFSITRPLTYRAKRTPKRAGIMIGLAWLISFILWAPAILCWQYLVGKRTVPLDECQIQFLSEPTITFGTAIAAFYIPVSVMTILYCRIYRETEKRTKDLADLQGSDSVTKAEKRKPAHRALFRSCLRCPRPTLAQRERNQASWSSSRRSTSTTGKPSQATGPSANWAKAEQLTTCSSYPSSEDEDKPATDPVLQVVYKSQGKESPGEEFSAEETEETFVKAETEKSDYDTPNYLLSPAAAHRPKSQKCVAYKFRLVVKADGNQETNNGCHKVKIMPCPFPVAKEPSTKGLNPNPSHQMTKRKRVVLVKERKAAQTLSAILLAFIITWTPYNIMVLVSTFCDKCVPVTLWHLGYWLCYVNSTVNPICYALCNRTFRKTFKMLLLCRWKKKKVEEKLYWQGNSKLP

[5] = biological target: T3, Muscarinic acetylcholine receptor M1 (Homo sapiens, UniProt P11229); assay: Potentiation of muscarinic M1 receptor expressed in CHO cells assessed as effect on acetylcholine-induced intracellular calcium mobilization after 1 hr by FLIPR assay
T3 sequence (P11229 whole entry): T1 sequence (whole entry)

[6] = biological target: T2, Muscarinic acetylcholine receptor M5 (Homo sapiens); assay: Potentiation of muscarinic M5 receptor expressed in CHO cells assessed as effect on acetylcholine-induced intracellular calcium mobilization at 10 uM after 1 hr by FLIPR assay relative to acetylcholine
[7] = biological target: Muscarinic acetylcholine receptor M3 (Homo sapiens) (UniProt P20309); assay: Potentiation of muscarinic M3 receptor expressed in CHO cells assessed as effect on acetylcholine-induced intracellular calcium mobilization at 30 uM after 1 hr by FLIPR assay relative to acetylcholine
[8] = biological target: T1, Muscarinic acetylcholine receptor M1 (Homo sapiens); assay: Potentiation of muscarinic M1 receptor expressed in CHO cells assessed as effect on acetylcholine-induced intracellular calcium mobilization at 30 uM after 1 hr by FLIPR assay
[9] = biological target: T2, Muscarinic acetylcholine receptor M5 (Homo sapiens); assay: Potentiation of muscarinic M5 receptor expressed in CHO cells assessed as effect on acetylcholine-induced intracellular calcium mobilization up to 30 uM after 1 hr by FLIPR assay
[10] = biological target: T4, Muscarinic acetylcholine receptor M4 (Homo sapiens) (UniProt P08173); assay: Potentiation of muscarinic M4 receptor expressed in CHO cells co-transfected with Gqi5 assessed as effect on acetylcholine-induced intracellular calcium mobilization up to 30 uM after 1 hr by FLIPR assay
T4 sequence (whole entry): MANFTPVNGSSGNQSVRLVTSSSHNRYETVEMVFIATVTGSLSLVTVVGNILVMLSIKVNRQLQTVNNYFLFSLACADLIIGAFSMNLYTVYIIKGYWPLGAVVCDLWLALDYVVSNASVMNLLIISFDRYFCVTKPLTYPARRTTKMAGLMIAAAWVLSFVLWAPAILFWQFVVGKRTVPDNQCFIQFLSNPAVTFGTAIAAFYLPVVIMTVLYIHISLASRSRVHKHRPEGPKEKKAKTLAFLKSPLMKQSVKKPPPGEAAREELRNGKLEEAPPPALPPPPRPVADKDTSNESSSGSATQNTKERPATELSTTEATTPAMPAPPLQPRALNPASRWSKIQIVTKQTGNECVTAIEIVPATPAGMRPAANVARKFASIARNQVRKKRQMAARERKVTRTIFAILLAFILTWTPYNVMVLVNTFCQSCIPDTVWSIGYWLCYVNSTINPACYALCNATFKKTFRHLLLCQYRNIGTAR

[11] = biological target: Muscarinic acetylcholine receptor M3 (Homo sapiens) (UniProt P20309); assay: Potentiation of muscarinic M3 receptor expressed in CHO cells assessed as effect on acetylcholine-induced intracellular calcium mobilization up to 30 uM after 1 hr by FLIPR assay
[12] = biological target: T5, Muscarinic acetylcholine receptor M2 (Homo sapiens) (UniProt P08172); assay: Potentiation of muscarinic M2 receptor expressed in CHO cells co-transfected with Gqi5 assessed as effect on acetylcholine-induced intracellular calcium mobilization up to 30 uM after 1 hr by FLIPR assay
T5 sequence (whole entry): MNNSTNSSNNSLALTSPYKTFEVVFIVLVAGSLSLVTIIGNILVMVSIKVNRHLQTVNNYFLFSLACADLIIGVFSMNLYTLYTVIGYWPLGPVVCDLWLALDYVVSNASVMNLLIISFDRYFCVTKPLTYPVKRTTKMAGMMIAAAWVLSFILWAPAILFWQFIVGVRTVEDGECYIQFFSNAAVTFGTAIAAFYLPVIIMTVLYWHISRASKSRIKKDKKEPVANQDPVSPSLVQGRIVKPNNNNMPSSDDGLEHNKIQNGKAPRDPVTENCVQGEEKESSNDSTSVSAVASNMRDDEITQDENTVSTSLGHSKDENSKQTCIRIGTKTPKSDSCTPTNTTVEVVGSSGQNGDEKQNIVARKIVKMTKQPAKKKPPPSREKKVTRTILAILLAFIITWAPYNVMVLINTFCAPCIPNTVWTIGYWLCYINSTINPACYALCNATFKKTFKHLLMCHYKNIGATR

Chain of Muscarinic acetylcholine receptor M3 (Homo sapiens) (P20309 whole entry, looked up): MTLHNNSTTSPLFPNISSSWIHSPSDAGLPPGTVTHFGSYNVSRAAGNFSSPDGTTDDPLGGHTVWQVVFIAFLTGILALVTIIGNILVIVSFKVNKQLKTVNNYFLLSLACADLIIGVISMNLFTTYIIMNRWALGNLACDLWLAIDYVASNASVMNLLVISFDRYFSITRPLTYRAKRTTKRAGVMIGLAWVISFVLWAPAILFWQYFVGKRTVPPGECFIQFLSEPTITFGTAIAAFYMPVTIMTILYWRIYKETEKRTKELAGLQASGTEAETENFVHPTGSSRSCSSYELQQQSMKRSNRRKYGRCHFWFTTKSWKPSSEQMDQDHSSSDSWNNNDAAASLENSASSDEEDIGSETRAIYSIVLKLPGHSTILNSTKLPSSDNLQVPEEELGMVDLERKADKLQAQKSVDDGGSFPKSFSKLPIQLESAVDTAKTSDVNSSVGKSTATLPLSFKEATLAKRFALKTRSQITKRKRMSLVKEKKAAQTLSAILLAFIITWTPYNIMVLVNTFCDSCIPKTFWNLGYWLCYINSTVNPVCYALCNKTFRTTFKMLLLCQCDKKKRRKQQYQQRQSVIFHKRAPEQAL

| SMILES | Activity [2] | EC50 [5] | fold change (FC) [8] | other results |
| --- | --- | --- | --- | --- |
| COc1ccc(Cn2cc(C(=O)O)c(=O)c3ccccc32)cc1 | 100% | – | – | fold change (FC) [1]: 100 |
| Cn1cc(-c2ccc(CN3C(=O)C(=O)c4ccccc43)cc2)cn1 | 80% | 2300 nM | 14 | fold change (FC) [3]: 5; Activity [4]: 35%; fold change (FC) [4]: 14; fold change (FC) [6]: 5; Activity [7]: 25% |
| Cn1cc(-c2ccc(CN3C(=O)C(=O)c4ccccc43)c(F)c2)cn1 | 65% | 830 nM | 3 | Activity [9]: inactive; fold change (FC) [9]: 3; Activity [10]: inactive; Activity [11]: inactive; Activity [12]: inactive |
| Cn1cc(-c2ccc(CN3C(=O)C(=O)c4cccc(F)c43)c(F)c2)cn1 | 55% | 2300 nM | – | – |
| Cn1cc(-c2ccc(CN3C(=O)C(=O)c4c(F)ccc(F)c43)c(F)c2)cn1 | 50% | 1200 nM | – | – |
| Cn1cc(-c2cc(F)c(CN3C(=O)C(=O)c4cccc(F)c43)c(F)c2)cn1 | 40% | 1100 nM | – | – |
| Cn1cc(-c2cc(F)c(CN3C(=O)C(=O)c4ccccc43)c(F)c2)cn1 | 60% | 860 nM | 2 | fold change (FC) [9]: 2 |
